# Test results: patent US20230277534A1 (Plexxikon Inc., priority 2011, published 2023)
# How the values were obtained:
# [1] = tested on: IPC-298 human melanoma cell line that expresses activated NRAS; test: IPC-298_P-ERK cell activation assay (phosphorylated ERK, AlphaScreen); format: cell-based; settings: IPC-298 cells, P-ERK activation
# Experimental: B9 is a squamous cell carcinoma cell line expressing activated HRAS that was isolated from a DMBA/TPA-induced mouse model of skin carcinogenesis (Stoler, et al. The Journal of Cell Biology, 1993, 122(5), 1103-17). IPC-298 is a human melanoma cell line that expresses activated NRAS (Aubert, et al. International Journal of Cancer, 1993, 54(5), 784-92). To determine whether compounds induce phosphorylated ERK and MEK, cells are plated in a 96-well dish and treated with an 8-point titration of compound for one hour at 37° C. The media is then removed and the cells are incubated with lysis buffer containing protease and phosphatase inhibitors. Phosphorylated ERK and MEK in the resulting lysates is detected using AlphaScreen™ technology. To detect phosphorylated ERK, cell lysates are incubated with streptavidin-coated donor beads, anti-mouse IgG acceptor beads, a biotinylated anti-ERK1/2 rabbit antibody, and a mouse antibody that recognizes ERK1/2 only when it is phosphorylated on Thr202 and Tyr204. The biotinylated ERK1/2 antibody will bind to both the streptavidin-coated donor beads and to ERK1/2 (regardless of its phosphorylation state), and the phospho-ERK1/2 antibody will bind to the acceptor beads and to ERK1/2 that is phosphorylated at Thr202/Tyr204. Excitation of the beads with laser light at 680 nm produces singlet oxygen, which is rapidly quenched unless the beads are in close proximity. When ERK is phosphorylated, both antibodies can bind the same protein, bringing the donor and acceptor beads into close proximity, producing a signal that can be measured at 580 nm. MEK phosphorylation is detected using a similar approach, only with antibodies directed against total MEK1/2 and MEK1/2 that is phosphorylated at Ser217 and Ser221.
# [2] = tested on: COLO205 colon adenocarcinoma cells (B-Raf V600E mutation); test: COLO205 cell growth inhibition (ATPlite); format: cell-based; settings: Homo sapiens, COLO 205, 72 h, 3 days
# Outline: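 Cells treated for 3 days at 37 °C, 5% CO2 with an 8-point 1:3 dilution series, top final concentration 10 μM, DMSO control. ATPlite luminescence used as a measure of cell number; IC50 from reading versus concentration.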
# B-Raf V600E = B-Raf V600E (Homo sapiens (Human), UniProt P15056, V600E); test: B-Raf V600E kinase biochemical activity assay (AlphaScreen, biotin-MEK1 substrate); settings: 100 μM ATP
# Outline: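 B-Raf V600E (0.1 ng) phosphorylated 100 nM biotin-MEK1 with 100 μM ATP (final) in HEPES pH 7.0 with Mg2+/Mn2+ for 45 min at room temperature. Compounds were tested over an 8-point serial dilution. Phospho-MEK1/2 was detected by AlphaScreen after 3 h with beads, and IC50 came from signal versus concentration.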
# Chain of B-Raf V600E (P15056 whole entry V600E): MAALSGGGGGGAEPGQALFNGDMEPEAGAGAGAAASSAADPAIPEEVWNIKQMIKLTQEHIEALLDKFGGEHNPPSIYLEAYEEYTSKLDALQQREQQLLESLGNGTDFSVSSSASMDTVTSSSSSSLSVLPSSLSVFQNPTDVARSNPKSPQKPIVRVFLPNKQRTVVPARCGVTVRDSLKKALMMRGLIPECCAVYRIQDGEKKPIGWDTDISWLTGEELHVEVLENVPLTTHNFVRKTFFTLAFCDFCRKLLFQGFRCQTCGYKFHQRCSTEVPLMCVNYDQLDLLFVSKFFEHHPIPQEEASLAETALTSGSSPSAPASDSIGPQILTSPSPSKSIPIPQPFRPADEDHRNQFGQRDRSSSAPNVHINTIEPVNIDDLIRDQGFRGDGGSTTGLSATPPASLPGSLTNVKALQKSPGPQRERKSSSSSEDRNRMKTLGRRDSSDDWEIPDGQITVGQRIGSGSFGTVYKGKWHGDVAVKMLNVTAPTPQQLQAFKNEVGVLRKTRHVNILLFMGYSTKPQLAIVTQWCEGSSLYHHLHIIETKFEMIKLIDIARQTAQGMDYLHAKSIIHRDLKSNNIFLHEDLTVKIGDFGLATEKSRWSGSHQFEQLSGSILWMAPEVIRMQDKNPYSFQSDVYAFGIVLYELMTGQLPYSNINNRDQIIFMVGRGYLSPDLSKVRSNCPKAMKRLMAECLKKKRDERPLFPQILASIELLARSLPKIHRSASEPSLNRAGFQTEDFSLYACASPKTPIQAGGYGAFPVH
Compound,EC50 ([1]; compounds known in the art),IC50 [2],"EC50 ([1]; 1 h, compound for one hour)",IC50 (B-Raf V600E)
COc1ncc(-c2cnc3[nH]cc(C(=O)c4c(F)ccc(NS(=O)(=O)c5cc(F)ccc5F)c4F)c3c2)cn1,< 1 µM,–,–,–
COc1ncc(-c2cnc3[nH]cc(C(=O)c4c(F)ccc(NS(=O)(=O)c5ccccc5F)c4F)c3c2)cn1,< 0.5 µM,–,–,–
CCCS(=O)(=O)Nc1ccc(F)c(C(=O)c2c[nH]c3ncc(Cl)cc23)c1F,< 0.5 µM,–,–,–
CCN(C)S(=O)(=O)Nc1ccc(F)c(C(=O)c2c[nH]c3ncc(-c4cnc(OC)nc4)cc23)c1F [Compound P-0014],–,< 1 µM,> 8 µM,–
"O=C(c1c(F)ccc(NS(=O)(=O)N2CCCC2)c1F)c1c[nH]c2ncc(F)c(I)c12 [Compound P-0015, N-[2,4-difluoro-3-(5-fluoro-4-iodo-1H-pyrrolo[2,3-b]pyridine-3-carbonyl)phenyl]pyrrolidine-1-sulfonamide]",–,–,> 10 µM,< 0.1 µM
CCN(C)S(=O)(=O)Nc1cccc(C(=O)c2c[nH]c3ncc(-c4ccc(Cl)cc4)cc23)c1F [Compound P-0019],–,> 1 µM,> 10 µM,–
CCN(C)S(=O)(=O)Nc1cccc(C(=O)c2c[nH]c3ncc(-c4cnc(OC)nc4)cc23)c1F [Compound P-0020],–,< 1 µM,> 10 µM,–
O=C(c1c(F)ccc(NS(=O)(=O)N2CCCC2)c1F)c1c[nH]c2ncc(-c3ccc(Cl)cc3)cc12 [Compound P-0021],–,–,> 10 µM,< 0.1 µM
CN(C)c1ncc(-c2cnc3[nH]cc(C(=O)c4c(F)ccc(NS(=O)(=O)N5CCCC5)c4F)c3c2)cn1 [Compound P-0022],–,–,> 10 µM,–
O=C(c1c(F)ccc(NS(=O)(=O)N2CCCC2)c1F)c1c[nH]c2ncc(I)cc12 [Compound P-0024],–,–,> 10 µM,–
COc1ncc(-c2cnc3[nH]cc(C(=O)c4cccc(NS(=O)(=O)N(C)C5CC5)c4F)c3c2)cn1 [Compound P-0025],–,< 1 µM,> 10 µM,–
CNS(=O)(=O)Nc1cccc(C(=O)c2c[nH]c3ncc(-c4cnc(OC)nc4)cc23)c1F [Compound P-0026],–,–,> 10 µM,–
Cc1ccc(-c2cnc3[nH]cc(C(=O)c4cccc(NS(=O)(=O)N(C)C)c4F)c3c2)cn1 [Compound P-0029],–,–,> 10 µM,–
CN(C)c1ccc(-c2cnc3[nH]cc(C(=O)c4cccc(NS(=O)(=O)N(C)C)c4F)c3c2)cn1 [Compound P-0030],–,–,> 10 µM,–
CCN(C)S(=O)(=O)Nc1cccc(C(=O)c2c[nH]c3ncc(-c4ccc(C#N)cc4)cc23)c1F [Compound P-0031],–,–,> 10 µM,–
CCN(C)S(=O)(=O)Nc1cccc(C(=O)c2c[nH]c3ncc(-c4cccnc4)cc23)c1F [Compound P-0032],–,–,> 10 µM,–
CCN(C)S(=O)(=O)Nc1cccc(C(=O)c2c[nH]c3ncc(-c4ccc(C)nc4)cc23)c1F [Compound P-0033],–,< 1 µM,> 10 µM,–

Compound,EC50 ([1]; compounds known in the art),IC50 [2],"EC50 ([1]; 1 h, compound for one hour)",IC50 (B-Raf V600E)
CCN(C)S(=O)(=O)Nc1cccc(C(=O)c2c[nH]c3ncc(-c4ccc(F)cc4)cc23)c1F [Compound P-0034],–,> 1 µM,> 10 µM,–
CN(C)S(=O)(=O)Nc1cccc(C(=O)c2c[nH]c3ncc(-c4ccc(F)cc4)cc23)c1F [Compound P-0035],–,> 1 µM,> 10 µM,–
"CCN(C)S(=O)(=O)Nc1cccc(C(=O)c2c[nH]c3ncc(-c4ccccc4)cc23)c1F [Compound P-0036, 3-[3-[[ethyl(methyl)sulfamoyl]amino]-2-fluoro-benzoyl]-5-phenyl-1H-pyrrolo[2,3-b]pyridine]",–,–,> 10 µM,< 0.1 µM
"CN(C)S(=O)(=O)Nc1cccc(C(=O)c2c[nH]c3ncc(-c4ccccc4)cc23)c1F [Compound P-0037, 3-[3-(dimethylsulfamoylamino)-2-fluoro-benzoyl]-5-phenyl-1H-pyrrolo[2,3-b]pyridine]",–,–,> 10 µM,< 0.1 µM
"CCN(C)S(=O)(=O)Nc1cccc(C(=O)c2c[nH]c3ncc(C#N)cc23)c1F [Compound P-0039, 5-cyano-3-[3-[[ethyl(methyl)sulfamoyl]amino]-2-fluoro-benzoyl]-1H-pyrrolo[2,3-b]pyridine]",–,> 1 µM,> 10 µM,–
"COc1ncc(-c2cnc3[nH]cc(C(=O)c4cccc(NS(=O)(=O)N5CCC(OCc6ccccc6)C5)c4F)c3c2)cn1 (stereo not shown) [Compound P-0041, 3-benzyloxy-N-[2-fluoro-3-[5-(2-methoxypyrimidin-5-yl)-1H-pyrrolo[2,3-b]pyridine-3-carbonyl]phenyl]pyrrolidine-1-sulfonamide]",–,–,> 10 µM,> 0.1 µM
"Cn1cc(-c2cnc3[nH]cc(C(=O)c4cccc(NS(=O)(=O)CC5CC5)c4F)c3c2)cn1 [Compound P-0042, 1-cyclopropyl-N-[2-fluoro-3-[5-(1-methylpyrazol-4-yl)-1H-pyrrolo[2,3-b]pyridine-3-carbonyl]phenyl]methanesulfonamide]",–,< 1 µM,> 10 µM,–
"COc1ncc(-c2cnc3[nH]cc(C(=O)c4cccc(NS(=O)(=O)N5CCCC5)c4F)c3c2)c(OC)n1 [Compound P-0044, N-[3-[5-(2,4-dimethoxypyrimidin-5-yl)-1H-pyrrolo[2,3-b]pyridine-3-carbonyl]-2-fluoro-phenyl]pyrrolidine-1-sulfonamide]",–,< 1 µM,> 10 µM,–
"CN(C)c1ccc(-c2cnc3[nH]cc(C(=O)c4cccc(NS(=O)(=O)N5CCCC5)c4F)c3c2)cn1 [Compound P-0046, N-[3-[5-[6-(dimethylamino)-3-pyridyl]-1H-pyrrolo[2,3-b]pyridine-3-carbonyl]-2-fluoro-phenyl]pyrrolidine-1-sulfonamide]",–,–,> 10 µM,< 0.1 µM
"CCN(C)S(=O)(=O)Nc1cccc(C(=O)c2c[nH]c3ncc(-c4ccc(C5(C#N)CC5)cc4)cc23)c1F [Compound P-0061, 5-[4-(1-cyanocyclopropyl)phenyl]-3-[3-[[ethyl(methyl)sulfamoyl]amino]-2-fluoro-benzoyl]-1H-pyrrolo[2,3-b]pyridine]",–,–,> 10 µM,< 0.1 µM
"O=C(c1c(F)ccc(NS(=O)(=O)N2CCC(F)(F)C2)c1F)c1c[nH]c2ncc(-c3cnc(C4CC4)nc3)cc12 [Compound P-0288, N-[3-[5-(2-cyclopropylpyrimidin-5-yl)-1H-pyrrolo[2,3-b]pyridine-3-carbonyl]-2,4-difluoro-phenyl]-3,3-difluoro-pyrrolidine-1-sulfonamide]",–,–,> 2 µM,< 0.1 µM
"CCN(C)S(=O)(=O)Nc1ccc(F)c(C(=O)c2c[nH]c3ncc(-c4ccc(C#N)cc4)cc23)c1F [Compound P-0300, 5-(4-cyanophenyl)-3-[3-[[ethyl(methyl)sulfamoyl]amino]-2,6-difluoro-benzoyl]-1H-pyrrolo[2,3-b]pyridine]",–,–,> 4 µM,< 0.1 µM
"NS(=O)(=O)Nc1ccc(F)c(C(=O)c2c[nH]c3ncc(-c4cnc(C5CC5)nc4)cc23)c1F [Compound P-0336, 5-(2-cyclopropylpyrimidin-5-yl)-3-[2,6-difluoro-3-(sulfamoylamino)benzoyl]-1H-pyrrolo[2,3-b]pyridine]",–,–,> 4 µM,> 0.1 µM
"CCC(C)S(=O)(=O)Nc1ccc(F)c(C(=O)c2c[nH]c3ncc(-c4ccc(Cl)cc4)cc23)c1F (stereo not shown) [Compound P-0337, N-[3-[5-(4-chlorophenyl)-1H-pyrrolo[2,3-b]pyridine-3-carbonyl]-2,4-difluoro-phenyl]butane-2-sulfonamide]",–,> 1 µM,–,< 0.1 µM
"O=C(c1c(F)ccc(NS(=O)(=O)N2CC[C@@H](F)C2)c1F)c1c[nH]c2ncc(-c3cnc(C4CC4)nc3)cc12 [Compound P-0338, (3R)—N-[3-[5-(2-cyclopropylpyrimidin-5-yl)-1H-pyrrolo[2,3-b]pyridine-3-carbonyl]-2,4-difluoro-phenyl]-3-fluoro-pyrrolidine-1-sulfonamide]",–,< 1 µM,–,< 0.1 µM
"O=C(c1c(F)ccc(NS(=O)(=O)N2CCC(F)C2)c1F)c1c[nH]c2ncc(-c3cnc(C4CC4)nc3)cc12 (stereo not shown) [Compound P-0339, N-[3-[5-(2-cyclopropylpyrimidin-5-yl)-1H-pyrrolo[2,3-b]pyridine-3-carbonyl]-2,4-difluoro-phenyl]-3-fluoro-pyrrolidine-1-sulfonamide]",–,< 1 µM,–,< 0.1 µM
"CN(CC(F)(F)F)S(=O)(=O)Nc1ccc(F)c(C(=O)c2c[nH]c3ncc(-c4cnc(C5CC5)nc4)cc23)c1F [Compound P-0340, 5-(2-cyclopropylpyrimidin-5-yl)-3-[2,6-difluoro-3-[[methyl(2,2,2-trifluoroethyl)sulfamoyl]amino]benzoyl]-1H-pyrrolo[2,3-b]pyridine]",–,< 1 µM,–,< 0.1 µM
